PMC4020785 (PLoS ONE, 2014)

What was measured:
[1] = set-up: method as in personal communication from Bioqual – Rockville, USA; conditions: Rhesus macaques, orally treated at similar dose; ref personal communication from Bioqual – Rockville, USA; cited from earlier work
[2] = test system: CD4, CXCR4, CCR5 on CD4+ T lymphocytes; test: Surface CD4, CXCR4, CCR5 expression in CD4+ T lymphocytes (cytometry); assay type: cell-based, human; conditions: cells from three donors, different concentrations, 24 h
Method: For analysis of cell surface marker expression, MT-4 cells and bead-selected CD4+ T cells (described above) were incubated with 1 µM of each compound (ING-A, ING-B, ING-C, prostratin, PMA, and bryostatin-1) at 37°C for 48 h. After incubation, cells were washed with PBS and incubated for 20 min at room temperature with antibodies against CD3-Brilliant Violet 510 (clone OKT3 – Biolegend), CD4-Qdot 655 (clone 53.5 - Life Technologies), CXCR4-PE (clone 1265 - BD Biosciences), CCR5-PerCP-Cy5.5 (clone 3A9 - BD Biosciences), CD69-Pacific Blue (clone FN50 – BD Biosciences), CD38-FITC (clone AT-1 – Stem Cell Technologies), CD25-APC (clone 2A3 – BD Biosciences), HLA-DR-Qdot 605 (clone TÜ36 – Life Technologies) and a marker for annexin V-FITC (Life Technologies). Cells (both MT-4 cells and CD4+ T cells) were initially incubated for 2 h with different PKC inhibitors (GÖ6983, GÖ6976 or RO-31-8220). Then, ING-B, prostratin or PMA at 1 µM or TNF-α at 10 ng/mL were added to each condition and incubation was carried out for 24 h at 37°C. Similar protocol was used for the analysis of PKC inhibitors in J-Lat clones 9.2 and 10.6. GFP expression, surface marker expression and activation marker were evaluated on a LSR Fortessa cytometer (BD Biosciences). Data analysis was performed using FlowJo software (Tree Star).

[3] = test system: HIV LTR in J-Lat clones; test: LTR-driven GFP expression in J-Lat clones; assay type: cell-based, HIV-1
Method: J-Lat cells are Jurkat cells stably transfected by an HIV genome whose nef sequence was replaced by the GFP gene. Also, a frameshift mutation was introduced to the env gene to prevent virus spread. […] To test the ISDs, a million cells of each clone were treated with different concentrations of each compound (ING-A, ING-B, ING-C, prostratin and PMA) at 37°C. TNF-α (10 ng/mL) was used as a positive control. After 48 h, cells were collected, washed with saline solution (PBS) and GFP expression was evaluated in a FACScalibur cytometer (BD Biosciences). Data were analyzed with Cell Quest Pro software (BD Biosciences).

[4] = test system: latent HIV in CD4+ T cells from virally suppressed patients; test: HIV pol RNA (RT-qPCR) in CD4+ T cells from HIV+ HAART-treated patients; assay type: cell-based, human; conditions: CD4+ T cells of five HIV+ HAART-treated patients, 1 µM, 24 h
From the text: Whole blood from five HIV+ patients at the Hospital Universitário Gaffrée e Guinle (Rio de Janeiro, Brazil) was collected for reactivation experiments. All individuals enrolled in the study voluntarily and provided written informed consent. Patients presented undetectable viral load (<50 copies/mL), more than 500 CD4+ T cells/mm^3 and have been HAART-treated for at least 10 months (Table 1). PBMCs where isolated following a Ficoll-Paque Plus protocol (GE Healthcare, UK). CD4+ T cells were selected by magnetic beads as described above, and 10^6 cells were incubated in R10 containing 1 µM of the testing compounds (ING-B, prostratin or PMA). DMSO 1% was used as negative control. The antiretroviral EFV (10 µM) was added to all conditions to prevent viral spread. After 24 h, cells were collected for RNA isolation using the All Prep Qiagen kit (Qiagen), as instructed by the manufacturer.
Total RNA from CD4+ T cells was analyzed by RT-qPCR using primers and probe (Life Technologies) specific for the HIV-pol region, as following: forward primer Pol-F (5'-[…] TTT T-3'), reverse primer Pol-R (5'-[…]-3') and a minor groove binder (MGB) probe Pol-Pb (5'-VIC-ATC CCC CCT TTT CTT T-3'). […]

In the case of `CCCCCC(=O)O[C@H]1C(C)=C[C@]23C(=O)[C@@H](C=C(CO)[C@@H](O)[C@]12O)[C@H]1[C@@H](C[C@H]3C)C1(C)C` [ING-B, ingenol-3-hexanoate], the side effects [1] is listed as “negligible side effects”, the “downregulation of CD4, CCR5 and CXCR4, dose dependence” value [2] is listed as “dose dependent” and the “GFP induction compared with other compounds” value ([3]; J-Lat clone 10.6, 48 h) is listed as “slightly more active than ING-A, ING-C and prostratin”. The “levels of GFP expression, rank order” value ([3]; J-Lat clones 9.2 and 10.6, 48 h, all concentrations tested) was “PMA = ING-B > ING-A = ING-C > prostratin” and the “HIV transcription (in words)” value [4] was “levels similar to PMA treatment”.
